≈ marks a conversion by molar mass, not a printed value. One block for each compound: values may come before it.
How the values were obtained:
Experiment in all cases: ≥ marks a high value that may be exact or a test limit, other limits are often not marked, values filed in µg/mL are converted to µM
[1] = test system: Aspergillus oryzae NBRC 100959
[2] = test system: Micrococcus luteus NBRC 3333
[3] = test system: Staphylococcus epidermidis NBRC 12993
[4] = test system: Escherichia coli NBRC 3972
[5] = test system: Candida viswanathii NBRC 10321
[6] = test system: Pseudomonas aeruginosa ATCC 27853
[7] = test system: Klebsiella pneumoniae ATCC 43816
[8] = test system: Candida albicans NCTC 1467
[9] = test system: Staphylococcus aureus NCTC 10788
[10] = test system: Staphylococcus aureus NCTC 12493
[11] = test system: Escherichia coli NCTC 10418
[12] = test system: Franconibacter helveticus DSM 18390
[13] = test system: Escherichia coli DSM 1116
[14] = test system: Staphylococcus xylosus DSM 20267
[15] = test system: Bacillus subtilis DSM 347
[16] = test system: Staphylococcus aureus ATCC 29213
[17] = test system: Escherichia coli ATCC 35218
[18] = test system: Klebsiella pneumoniae ATCC 13866
[19] = test system: Escherichia coli ATCC 11229
[20] = test system: Staphylococcus aureus ATCC 33591
[21] = test system: Staphylococcus aureus ATCC 25923
Escherichia coli = test system: Escherichia coli
Bacillus pumilus = test system: Bacillus pumilus
Psychrobacter sp. TAD 1 = test system: Psychrobacter sp. TAD 1
Candida boidinii = test system: Candida boidinii
[22] = test system: Bacillus megaterium QMB 1551
[23] = test system: Bacillus thuringiensis serovar tenebrionis DSM 2803
[24] = test system: Pseudomonas syringae pv. tomato NCPPB 1106
[25] = test system: Clavibacter michiganensis subsp. insidiosus NCPPB 1109
[26] = test system: Salmonella enterica subsp. enterica serovar Newport
[27] = test system: Sinorhizobium meliloti ZB314
[28] = test system: Serratia marcescens ATCC 17991
[29] = test system: Salmonella typhimurium ATCC 23565
Shigella flexneri CP87 = test system: Shigella flexneri CP87
[30] = test system: Escherichia coli NCTC 9001
[31] = test system: Paenibacillus alvei LMG 6922
[32] = test system: Agrobacterium tumefaciens DSM 3129
[33] = test system: Brenneria salicis NCPPB 2530
[34] = test system: Bacillus subtilis NRRL B-237
[35] = test system: Acinetobacter baumannii ATCC 17978
[36] = test system: Staphylococcus aureus HNCMO 112011
[37] = test system: Escherichia coli ATCC 8739

- MIC [1]: ≥ 59.7 µM
- MIC [2]: ≥ 59.7 µM
- MIC [3]: 29.8 µM (≈ 50 µg/mL)
- MIC [4]: ≥ 477 µM
- MIC [5]: ≥ 59.7 µM
Structure (SMILES): CSCC[C@H](NC(=O)[C@H](CCCCN)NC(=O)[C@H](Cc1c[nH]c2ccccc12)NC(=O)[C@H](CCCN=C(N)N)NC(=O)[C@H](CCCCN)NC(=O)[C@H](Cc1ccccc1)NC(=O)[C@H](CC(C)C)NC(=O)[C@H](CCCN=C(N)N)NC(=O)[C@H](CCCCN)NC(=O)[C@@H](NC(=O)[C@H](CCCCN)NC(=O)[C@@H](N)CCCN=C(N)N)C(C)C)C(=O)O [RKVKRLFKRWKM]

- MIC [12]: 7.31 µM (≈ 16 µg/mL)
- MIC [13]: 14.6 µM (≈ 32 µg/mL)
- MIC [14]: 3.65 µM (≈ 8 µg/mL)
- MIC [15]: 14.6 µM (≈ 32 µg/mL)
Structure (SMILES): CC(C)C[C@H](NC(=O)[C@H](CCCCN)NC(=O)[C@H](CC(C)C)NC(=O)[C@H](CCCCN)NC(=O)[C@H](CC(C)C)NC(=O)[C@H](CCCCN)NC(=O)[C@H](CC(C)C)NC(=O)[C@H](CCCCN)NC(=O)[C@H](CC(C)C)NC(=O)[C@H](CCCCN)NC(=O)[C@H](CC(C)C)NC(=O)[C@H](CCCCN)NC(=O)[C@H](CC(C)C)NC(=O)[C@H](CCCCN)NC(=O)[C@H](CC(C)C)NC(=O)[C@H](CCCCN)NC(=O)[C@H](CC(C)C)NC(=O)[C@@H](N)CCCCN)C(N)=O [KLKLKLKLKLKLKLKLKL]

- MIC [22]: ≥ 75.2 µM
- MIC [23]: ≥ 100 µM
- MIC [24]: 0.1 µM (≈ 0.2 µg/mL)
- MIC [25]: 25.1 µM (≈ 50 µg/mL)
- MIC [26]: 0.1 µM (≈ 0.2 µg/mL)
- MIC [27]: 0.0501 µM (≈ 0.1 µg/mL)
- MIC [28]: ≥ 100 µM
- MIC [29]: 0.0501 µM (≈ 0.1 µg/mL)
- MIC (Shigella flexneri CP87): 0.0501 µM (≈ 0.1 µg/mL)
- MIC [30]: 0.0501 µM (≈ 0.1 µg/mL)
- MIC [31]: ≥ 100 µM
- MIC [32]: 0.1 µM (≈ 0.2 µg/mL)
- MIC [33]: 0.01 µM (≈ 0.02 µg/mL)
- MIC [34]: ≥ 100 µM
Structure (SMILES): CC[C@H](C)[C@H](NC(=O)[C@H](Cc1ccc(O)cc1)NC(=O)[C@@H](NC(=O)[C@@H]1CCCN1C(=O)[C@H](CCCN=C(N)N)NC(=O)[C@H](CC(N)=O)NC(=O)[C@H](CC(N)=O)NC(=O)CN)C(C)C)C(=O)N1CCC[C@H]1C(=O)N[C@@H](CCC(N)=O)C(=O)N1CCC[C@H]1C(=O)N[C@@H](CCCN=C(N)N)C(=O)N1CCC[C@H]1C(=O)N1CCC[C@H]1C(=O)N[C@@H](Cc1cnc[nH]1)C(=O)N1CCC[C@H]1C(=O)N[C@@H](CCCN=C(N)N)C(=O)O [GNNRPVYIPQPRPPHPR]

- MIC [35]: 25 µM (≈ 28.5 µg/mL)
- MIC [36]: 25 µM (≈ 28.5 µg/mL)
- MIC [37]: 25 µM (≈ 28.5 µg/mL)
Structure (SMILES): CC[C@H](C)[C@H](NC(=O)[C@H](CCCCN)NC(=O)[C@H](CCCCN)NC(=O)[C@H](C)NC(=O)[C@H](CC(C)C)NC(=O)[C@H](C)NC(=O)[C@H](C)NC(=O)[C@H](CC(C)C)NC(=O)[C@H](C)NC(=O)[C@@H](N)CCCCN)C(=O)N[C@@H](CC(C)C)C(=O)O [KALAALAKKIL]

Further lines, the compound ahead of its results:

Structure (SMILES): CC[C@H](C)[C@@H]1NC(=O)[C@H](CC(C)C)NC(=O)[C@@H](NC(=O)[C@H](Cc2ccccc2)NC(=O)[C@H](CC(C)C)NC(=O)[C@H](CCCCN)NC(=O)[C@@H]2CCCN2C(=O)[C@H](CC(C)C)NC(=O)[C@@H](NC(=O)[C@H](CCCCN)NC(=O)[C@@H](NC(=O)[C@@H](NC(=O)[C@H](C)NC(=O)CNC(=O)[C@H](CC(C)C)NC(=O)[C@H](C)NC(=O)[C@@H](N)Cc2ccccc2)C(C)C)[C@@H](C)O)C(C)C)CSSC[C@@H](C(=O)O)NC(=O)[C@H](CCCCN)NC(=O)[C@H](CCCN=C(N)N)NC(=O)[C@H]([C@@H](C)O)NC1=O [FALGAVTKVLPKLFCLITRKC]
- MIC [6]: 64 µM (≈ 148 µg/mL)
- MIC [7]: ≥ 64 µM
- MIC [8]: 16 µM (≈ 37.1 µg/mL)
- MIC [9]: 4 µM (≈ 9.28 µg/mL)
- MIC [10]: 8 µM (≈ 18.6 µg/mL)
- MIC [11]: 16 µM (≈ 37.1 µg/mL)

Structure (SMILES): CSCC[C@H](NC(=O)[C@H](CC(C)C)NC(=O)CN)C(=O)N[C@@H](CCCCN)C(=O)N[C@@H](CC(C)C)C(=O)N[C@@H](CC(C)C)C(=O)N[C@@H](CCCN=C(N)N)C(=O)N[C@@H](CCC(=O)O)C(=O)N[C@@H](CC(C)C)C(=O)N[C@@H](CC(C)C)C(=O)N[C@@H](Cc1cnc[nH]1)C(=O)N[C@@H](CCSC)C(=O)N[C@@H](Cc1ccccc1)C(=O)N[C@@H](CO)C(=O)N[C@@H](CCCN=C(N)N)C(=O)N[C@H](C(=O)NCC(=O)O)C(C)C [GLMKLLRELLHMFSRVG]
- MIC [16]: 32 µM (≈ 64 µg/mL)
- MIC [17]: ≥ 64 µM
- MIC [18]: 32 µM (≈ 64 µg/mL)
- MIC [6]: 8 µM (≈ 16 µg/mL)
- MIC [19]: ≥ 64 µM
- MIC [20]: 16 µM (≈ 32 µg/mL)
- MIC [21]: 32 µM (≈ 64 µg/mL)

Structure (SMILES): CC[C@H](C)[C@H](NC(=O)CNC(=O)[C@H](CCCN=C(N)N)NC(=O)[C@H](CC(C)C)NC(=O)[C@H](CC(C)C)NC(=O)[C@H](Cc1cnc[nH]1)NC(=O)CNC(=O)[C@H](Cc1ccccc1)NC(=O)[C@@H](N)Cc1ccccc1)C(=O)N[C@H](C(=O)N[C@@H](CO)C(=O)N[C@H](C(=O)NCC(=O)N[C@@H](CCCCN)C(=O)N[C@@H](Cc1cnc[nH]1)C(=O)N[C@H](C(=O)N[C@@H](Cc1cnc[nH]1)C(=O)NCC(=O)N[C@@H](CC(C)C)C(=O)N[C@H](C(=O)N[C@H](C(=O)NCC(=O)O)[C@@H](C)O)[C@@H](C)CC)[C@@H](C)CC)C(C)C)C(C)C [FFGHLLRGIVSVGKHIHGLITG]
- MIC (Escherichia coli): 25 µM (≈ 59 µg/mL)
- MIC (Bacillus pumilus): 10 µM (≈ 23.6 µg/mL)
- MIC (Psychrobacter sp. TAD 1): 2.5 µM (≈ 5.9 µg/mL)
- MIC (Candida boidinii): ≥ 50 µM
